Measured values taken from US20080009418A1, “Selective Inhibitors” (Alchemia LTD., priority 2004, published 2008).

Key:
[1] = biological target: T1, Human melanocortin (MC5) (Homo sapiens, UniProt P33032); experiment: Radioligand binding, human melanocortin MC5 membranes, FlashPlate, [125I]-NDP-αMSH; conditions: compound at 10 μM, [125I]-NDP-αMSH; for A5: inhibition of radioligand binding: FlashPlate
T1 construct: purchased Perkin Elmer Biosignal
How it was run: (§1)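 Cloned human receptor membranes were coated onto FlashPlate wells and incubated with radioligand and compound (added from a 0.5 mM DMSO daughter plate) for 1 hour at room temperature in the dark. Scintillation counting gave percent inhibition, with DMSO defining total and reference ligand defining non-specific binding.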

[2] = biological target: T2, Mouse urotensin (mUR2) (Mus musculus, UniProt Q8VIH9); experiment: Radioligand binding, mouse urotensin mUR2 membranes, FlashPlate, [125I]-Urotensin II; conditions: compound at 10 μM, [125I]-Urotensin II; for A11: inhibition of radioligand binding: FlashPlate
T2 construct: purchased Perkin Elmer Biosignal
T2 sequence (Q8VIH9 1-385): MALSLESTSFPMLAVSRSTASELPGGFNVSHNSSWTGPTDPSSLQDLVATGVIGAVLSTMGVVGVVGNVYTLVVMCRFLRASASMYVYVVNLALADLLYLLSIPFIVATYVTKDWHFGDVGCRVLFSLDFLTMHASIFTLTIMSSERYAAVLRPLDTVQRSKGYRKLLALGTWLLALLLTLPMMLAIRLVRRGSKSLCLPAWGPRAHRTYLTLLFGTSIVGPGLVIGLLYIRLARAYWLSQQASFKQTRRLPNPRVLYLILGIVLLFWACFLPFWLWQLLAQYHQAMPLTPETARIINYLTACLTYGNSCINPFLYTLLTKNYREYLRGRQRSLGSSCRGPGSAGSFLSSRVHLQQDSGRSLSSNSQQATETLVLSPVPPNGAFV
How it was run: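 Cloned mouse urotensin (mUR2) receptor membranes from Perkin Elmer Biosignal were immobilized in FlashPlate microplates using a proprietary coating. Each well got 19.5 μl buffer, then 0.5 μl of DMSO, reference ligand, or compound. Adding 5 μl of [125I]-Urotensin II, diluted to 5× final concentration in binding buffer, started binding. Plates were sealed with TopSeal-A and incubated 1 hour at room temperature in the dark. Wells were counted for 30 seconds each on a TopCount after a 60-second delay, and percentage inhibition was calculated.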

[3] = biological target: T3, Human Melanocortin (MC3) (Homo sapiens, UniProt P41968); experiment: Radioligand binding, human melanocortin MC3 membranes, FlashPlate, [125I]-NDP-αMSH; conditions: compound at 10 μM, [125I]-NDP-αMSH; for A3: inhibition of radioligand binding: FlashPlate
T3 construct: purchased Perkin Elmer Biosignal
T3 sequence (P41968 whole entry): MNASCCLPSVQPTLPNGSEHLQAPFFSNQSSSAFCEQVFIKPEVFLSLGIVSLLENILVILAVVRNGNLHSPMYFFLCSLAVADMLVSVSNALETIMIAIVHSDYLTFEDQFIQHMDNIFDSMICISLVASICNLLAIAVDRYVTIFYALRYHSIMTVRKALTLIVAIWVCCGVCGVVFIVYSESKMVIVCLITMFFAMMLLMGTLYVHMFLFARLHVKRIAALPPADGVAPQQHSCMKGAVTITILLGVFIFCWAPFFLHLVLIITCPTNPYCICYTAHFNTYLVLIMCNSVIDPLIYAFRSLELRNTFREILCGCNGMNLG
How it was run: as §1

[4] = biological target: T4, Human μ-opioid (MOP) (Homo sapiens, UniProt P35372); experiment: Radioligand binding, human μ-opioid (MOP) membranes, FlashPlate, [3H]-Naloxone; conditions: compound at 10 μM, [3H]-Naloxone; for A7: inhibition of radioligand binding: FlashPlate
T4 construct: purchased Perkin Elmer Biosignal
T4 sequence (P35372 whole entry): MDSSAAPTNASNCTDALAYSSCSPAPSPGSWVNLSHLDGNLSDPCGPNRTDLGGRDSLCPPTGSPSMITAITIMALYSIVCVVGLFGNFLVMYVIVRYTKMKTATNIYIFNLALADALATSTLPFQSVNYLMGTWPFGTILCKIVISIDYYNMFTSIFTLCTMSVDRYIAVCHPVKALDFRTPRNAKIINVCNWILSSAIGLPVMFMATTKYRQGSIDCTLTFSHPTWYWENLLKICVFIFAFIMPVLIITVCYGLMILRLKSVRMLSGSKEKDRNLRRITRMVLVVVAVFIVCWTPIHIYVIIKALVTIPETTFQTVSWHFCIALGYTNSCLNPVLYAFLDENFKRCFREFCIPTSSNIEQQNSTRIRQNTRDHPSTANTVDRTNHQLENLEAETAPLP
How it was run: as §1

[5] = biological target: T5, Human melanin-concentrating hormone (MCH1) (Homo sapiens, UniProt Q99705); experiment: Radioligand binding, human melanin-concentrating hormone MCH1 membranes, FlashPlate, [125I]-S36057; conditions: compound at 10 μM; for A6: inhibition of radioligand binding: [125I]-S36057, FlashPlate
T5 construct: purchased Perkin Elmer Biosignal
T5 sequence (Q99705 whole entry): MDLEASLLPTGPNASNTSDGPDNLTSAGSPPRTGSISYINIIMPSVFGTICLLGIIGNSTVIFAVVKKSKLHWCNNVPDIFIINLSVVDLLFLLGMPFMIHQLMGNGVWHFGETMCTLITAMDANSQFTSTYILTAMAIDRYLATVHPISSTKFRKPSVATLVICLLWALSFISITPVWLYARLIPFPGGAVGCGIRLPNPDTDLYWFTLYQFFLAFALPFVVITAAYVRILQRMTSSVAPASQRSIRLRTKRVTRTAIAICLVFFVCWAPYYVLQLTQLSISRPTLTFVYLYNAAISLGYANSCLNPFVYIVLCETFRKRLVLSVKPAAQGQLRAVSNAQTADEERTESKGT
How it was run: as §1

[6] = biological target: T6, Human neurokinin (NK1) (Homo sapiens, UniProt P25103); experiment: Radioligand binding, human neurokinin NK1 membranes, filtration, [125I]-Substance P; conditions: compound at 10 μM, [125I]-Substance P; for A8: inhibition of radioligand binding: filtration
T6 construct: purchased Perkin Elmer Biosignal
T6 sequence (P25103 whole entry): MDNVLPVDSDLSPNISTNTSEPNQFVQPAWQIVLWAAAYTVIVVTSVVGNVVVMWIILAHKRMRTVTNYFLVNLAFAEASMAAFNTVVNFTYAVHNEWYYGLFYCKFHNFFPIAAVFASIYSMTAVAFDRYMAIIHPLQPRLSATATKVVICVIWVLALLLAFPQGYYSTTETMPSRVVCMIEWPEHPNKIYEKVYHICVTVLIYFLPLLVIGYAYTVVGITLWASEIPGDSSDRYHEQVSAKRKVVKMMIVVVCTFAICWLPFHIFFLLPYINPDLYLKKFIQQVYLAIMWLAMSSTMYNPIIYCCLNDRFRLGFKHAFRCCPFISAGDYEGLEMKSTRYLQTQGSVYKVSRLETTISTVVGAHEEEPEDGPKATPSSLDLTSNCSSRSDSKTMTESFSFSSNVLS
How it was run: (§2)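 Membranes from cloned human receptors were incubated with compound and radioligand for 1 hour at room temperature. Bound ligand was collected on 0.3% PEI-soaked filters, washed with cold 50 mM Tris-HCl pH 7.4, and counted by scintillation. Percent inhibition was computed against DMSO totals and reference-ligand nonspecific wells.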

[7] = biological target: T7, Human δ-opioid (DOP) (Homo sapiens, UniProt P41143); experiment: Radioligand binding, human δ-opioid (DOP) membranes, FlashPlate, [3H]-Bremazocine; conditions: compound at 10 μM, [3H]-Bremazocine; for A1: inhibition of radioligand binding: FlashPlate
T7 construct: purchased Perkin Elmer Biosignal
T7 sequence (P41143 whole entry): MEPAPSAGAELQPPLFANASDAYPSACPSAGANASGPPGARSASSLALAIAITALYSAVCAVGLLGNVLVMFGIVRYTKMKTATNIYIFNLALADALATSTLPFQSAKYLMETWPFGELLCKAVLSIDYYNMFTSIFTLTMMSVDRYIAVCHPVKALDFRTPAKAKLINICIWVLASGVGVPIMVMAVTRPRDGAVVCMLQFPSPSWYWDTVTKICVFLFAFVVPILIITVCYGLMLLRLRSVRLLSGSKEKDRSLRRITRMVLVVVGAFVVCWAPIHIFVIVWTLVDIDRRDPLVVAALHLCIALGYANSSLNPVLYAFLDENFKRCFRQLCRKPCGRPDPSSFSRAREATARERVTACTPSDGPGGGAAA
How it was run: as §1

[8] = biological target: T8, Human opioid (ORL1) (Homo sapiens, UniProt P41146); experiment: Radioligand binding, human opioid ORL1 membranes, FlashPlate, [125I]-Nociceptin; conditions: compound at 10 μM, [125I]-Nociceptin; for A10: inhibition of radioligand binding: FlashPlate
T8 construct: purchased Perkin Elmer Biosignal
T8 sequence (P41146 whole entry): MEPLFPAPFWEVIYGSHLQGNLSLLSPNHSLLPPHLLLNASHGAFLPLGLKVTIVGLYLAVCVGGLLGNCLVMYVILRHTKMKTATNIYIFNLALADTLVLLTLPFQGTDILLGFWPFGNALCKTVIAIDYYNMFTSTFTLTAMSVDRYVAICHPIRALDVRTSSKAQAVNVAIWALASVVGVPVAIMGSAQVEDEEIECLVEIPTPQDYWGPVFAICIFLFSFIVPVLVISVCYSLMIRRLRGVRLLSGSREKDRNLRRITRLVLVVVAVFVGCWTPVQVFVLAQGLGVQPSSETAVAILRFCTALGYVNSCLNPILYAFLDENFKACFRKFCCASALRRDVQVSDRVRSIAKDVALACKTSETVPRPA
How it was run: as §1

[9] = biological target: T9, Human neuropeptide Y (NPY-Y1) (Homo sapiens, UniProt P25929); experiment: Radioligand binding, human neuropeptide Y NPY-Y1 membranes, FlashPlate, [125I]-PYY; conditions: compound at 10 μM, [125I]-PYY; for A9: inhibition of radioligand binding: FlashPlate
T9 construct: purchased Perkin Elmer Biosignal
T9 sequence (P25929 1-384): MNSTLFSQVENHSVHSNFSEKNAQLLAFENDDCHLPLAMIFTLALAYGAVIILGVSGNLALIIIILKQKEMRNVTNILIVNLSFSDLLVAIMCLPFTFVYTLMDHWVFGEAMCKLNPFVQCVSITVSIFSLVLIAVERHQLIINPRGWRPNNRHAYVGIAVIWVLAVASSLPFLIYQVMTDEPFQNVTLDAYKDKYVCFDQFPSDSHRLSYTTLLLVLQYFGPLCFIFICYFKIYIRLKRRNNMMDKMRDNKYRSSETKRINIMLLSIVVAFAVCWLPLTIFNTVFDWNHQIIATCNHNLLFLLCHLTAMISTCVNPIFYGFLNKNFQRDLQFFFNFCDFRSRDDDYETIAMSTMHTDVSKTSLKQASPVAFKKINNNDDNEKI
How it was run: as §1

[10] = biological target: T10, Human Melanocortin (MC4) (Homo sapiens, UniProt P32245); experiment: Radioligand binding, human melanocortin MC4 membranes, FlashPlate, [125I]-NDP-αMSH; conditions: compound at 10 μM, [125I]-NDP-αMSH; for A4: inhibition of radioligand binding: FlashPlate
T10 construct: purchased Perkin Elmer Biosignal
T10 sequence (P32245 whole entry): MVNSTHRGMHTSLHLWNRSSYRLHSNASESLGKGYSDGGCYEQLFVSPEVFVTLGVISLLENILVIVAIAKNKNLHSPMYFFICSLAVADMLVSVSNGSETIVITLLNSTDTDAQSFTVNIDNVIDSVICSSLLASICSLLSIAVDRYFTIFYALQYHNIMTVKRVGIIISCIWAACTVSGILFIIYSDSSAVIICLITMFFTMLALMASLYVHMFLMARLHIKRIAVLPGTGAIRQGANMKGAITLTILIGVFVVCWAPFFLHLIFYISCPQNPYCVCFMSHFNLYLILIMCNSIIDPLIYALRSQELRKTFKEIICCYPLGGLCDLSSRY
How it was run: as §1

[11] = biological target: T11, Human κ-Opioid (KOP) (Homo sapiens, UniProt P41145); experiment: Radioligand binding, human κ-opioid (KOP) membranes, filtration, [3H]-Diprenorphine; conditions: compound at 10 μM, [3H]-Diprenorphine; for A2: inhibition of radioligand binding: filtration
T11 construct: purchased Perkin Elmer Biosignal
T11 sequence (P41145 whole entry): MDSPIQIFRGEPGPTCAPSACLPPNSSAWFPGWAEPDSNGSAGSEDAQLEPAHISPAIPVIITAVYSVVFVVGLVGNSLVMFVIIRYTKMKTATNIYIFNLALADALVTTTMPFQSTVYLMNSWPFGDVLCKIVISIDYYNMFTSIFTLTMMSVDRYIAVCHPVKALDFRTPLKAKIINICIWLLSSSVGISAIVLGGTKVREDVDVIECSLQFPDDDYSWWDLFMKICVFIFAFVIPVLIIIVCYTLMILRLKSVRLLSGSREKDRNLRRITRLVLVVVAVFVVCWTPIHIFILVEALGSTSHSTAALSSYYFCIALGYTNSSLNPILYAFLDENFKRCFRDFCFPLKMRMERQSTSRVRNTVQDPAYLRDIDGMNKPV
How it was run: as §2

T1 sequence (P33032 whole entry): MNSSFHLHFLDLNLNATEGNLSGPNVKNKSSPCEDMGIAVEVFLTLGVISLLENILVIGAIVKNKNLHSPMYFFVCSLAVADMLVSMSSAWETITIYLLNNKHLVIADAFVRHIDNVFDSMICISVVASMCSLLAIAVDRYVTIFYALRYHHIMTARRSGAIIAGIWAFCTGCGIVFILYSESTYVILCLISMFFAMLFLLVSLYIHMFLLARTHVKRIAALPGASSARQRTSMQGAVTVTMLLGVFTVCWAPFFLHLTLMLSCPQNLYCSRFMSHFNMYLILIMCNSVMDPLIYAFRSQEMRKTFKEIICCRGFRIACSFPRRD

SMILES | A5: inhibition of radioligand binding [1] | A11: inhibition of radioligand binding [2] | A3: inhibition of radioligand binding [3] | A7: inhibition of radioligand binding [4] | A6: inhibition of radioligand binding [5] | A8: inhibition of radioligand binding [6] | A1: inhibition of radioligand binding [7] | A10: inhibition of radioligand binding [8] | A9: inhibition of radioligand binding [9] | A4: inhibition of radioligand binding [10] | A2: inhibition of radioligand binding [11] | other results
COCC1OC(OCCc2ccccc2)C(NC(=O)CNC(=N)N)C(OCc2ccc(Cl)cc2)C1O (stereo not drawn) [compound 220] | + (“+” indicates greater than 50% inhibition at 10 μM) | − (“−” indicates less than 50% inhibition at 10 μM) | + (“+” indicates greater than 50% inhibition at 10 μM) | − (“−” indicates less than 50% inhibition at 10 μM) | − (“−” indicates less than 50% inhibition at 10 μM) | + (“+” indicates greater than 50% inhibition at 10 μM) | − (“−” indicates less than 50% inhibition at 10 μM) | − (“−” indicates less than 50% inhibition at 10 μM) | − (“−” indicates less than 50% inhibition at 10 μM) | + (“+” indicates greater than 50% inhibition at 10 μM) | − (“−” indicates less than 50% inhibition at 10 μM) | 
COCC1OC(OCc2ccc(Cl)cc2)C(NC(=O)CCNC(=N)N)C(OCc2ccc(-c3ccccc3)cc2)C1O (stereo not drawn) [compound 206] | + (“+” indicates greater than 50% inhibition at 10 μM) | − (“−” indicates less than 50% inhibition at 10 μM) | − (“−” indicates less than 50% inhibition at 10 μM) | − (“−” indicates less than 50% inhibition at 10 μM) | + (“+” indicates greater than 50% inhibition at 10 μM) | + (“+” indicates greater than 50% inhibition at 10 μM) | − (“−” indicates less than 50% inhibition at 10 μM) | − (“−” indicates less than 50% inhibition at 10 μM) | − (“−” indicates less than 50% inhibition at 10 μM) | + (“+” indicates greater than 50% inhibition at 10 μM) | − (“−” indicates less than 50% inhibition at 10 μM) | 
CSC1OC(COCc2ccc(-c3ccccc3)cc2)C(O)C(OCc2ccc3ccccc3c2)C1NC(=O)CNC(=N)N (stereo not drawn) [compound 312] |  |  |  |  |  |  |  |  |  |  |  | A5: inhibition of radioligand binding, human melanocortin (MC5) [1]: + (“+” indicates greater than 50% inhibition at 10 μM); A11: inhibition of radioligand binding, mouse urotensin (mUR2) [2]: − (“−” indicates less than 50% inhibition at 10 μM); A3: inhibition of radioligand binding, human melanocortin (MC3) [3]: + (“+” indicates greater than 50% inhibition at 10 μM); A7: inhibition of radioligand binding, human μ-opioid (MOP) [4]: − (“−” indicates less than 50% inhibition at 10 μM); A6: inhibition of radioligand binding, human melanin-concentrating hormone (MCH1) ([5]; [125I]-S36057): − (“−” indicates less than 50% inhibition at 10 μM); A8: inhibition of radioligand binding, human neurokinin (NK1) [6]: + (“+” indicates greater than 50% inhibition at 10 μM); A1: inhibition of radioligand binding, human δ-opioid (DOP) [7]: − (“−” indicates less than 50% inhibition at 10 μM); A10: inhibition of radioligand binding, human opioid (ORL1) [8]: − (“−” indicates less than 50% inhibition at 10 μM); A9: inhibition of radioligand binding, human neuropeptide Y (NPY-Y1) [9]: − (“−” indicates less than 50% inhibition at 10 μM); A4: inhibition of radioligand binding, human melanocortin (MC4) [10]: + (“+” indicates greater than 50% inhibition at 10 μM); A2: inhibition of radioligand binding, human κ-opioid (KOP) [11]: − (“−” indicates less than 50% inhibition at 10 μM)
